Measured values: ChEMBL document CHEMBL1149619, “E,E,E-1-(4-Arylamino-4-oxo-2-butenoyl)-3,5-bis(arylidene)-4-piperidones: a topographical study of some novel potent cytotoxins” (Bioorg Med Chem, 2007)

Legend:
[1] = Cytotoxicity against human Molt 4/C8 cells; assay type: functional, cell-based; conditions: Molt4/C8
Aspergillus fumigatus [2] = assay: Antifungal activity against Aspergillus fumigatus M44251; assay type: functional
Aspergillus fumigatus [3] = assay: Antifungal activity against Aspergillus fumigatus ATCC 280997; assay type: functional
L1210 = assay: Cytotoxicity against mouse L1210 cells; assay type: functional, cell-based
CCRF-CEM = assay: Cytotoxicity against human CEM cells; assay type: functional, cell-based
Aspergillus fumigatus [4] = assay: Antifungal activity against Aspergillus fumigatus F69827; assay type: functional
Aspergillus fumigatus [5] = assay: Antifungal activity against Aspergillus fumigatus ATCC 280996; assay type: functional
Aspergillus fumigatus [6] = assay: Antifungal activity against Aspergillus fumigatus ATCC 280995; assay type: functional
[7] = target: T1, Glycylpeptide N-tetradecanoyltransferase 1 (Homo sapiens) (UniProt P30419); assay: Inhibition of human NMT at 100 uM
T1 sequence (whole entry): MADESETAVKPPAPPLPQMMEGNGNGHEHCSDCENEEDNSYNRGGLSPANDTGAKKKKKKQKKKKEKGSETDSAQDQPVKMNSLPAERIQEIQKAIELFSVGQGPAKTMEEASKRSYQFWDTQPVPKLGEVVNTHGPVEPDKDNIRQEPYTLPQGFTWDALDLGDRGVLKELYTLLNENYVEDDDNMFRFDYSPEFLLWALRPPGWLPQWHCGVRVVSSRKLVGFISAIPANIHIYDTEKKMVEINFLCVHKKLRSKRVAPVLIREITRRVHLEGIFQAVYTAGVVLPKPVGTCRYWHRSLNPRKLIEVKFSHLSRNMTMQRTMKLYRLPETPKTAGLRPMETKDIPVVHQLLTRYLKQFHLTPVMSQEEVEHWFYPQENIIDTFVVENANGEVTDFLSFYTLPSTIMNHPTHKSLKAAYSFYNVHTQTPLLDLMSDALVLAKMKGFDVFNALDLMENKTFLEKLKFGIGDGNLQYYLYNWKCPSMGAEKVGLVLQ

Mus musculus = assay: Neurotoxicity in mouse assessed as mortality up to 300 mg/kg after 4 hrs; assay type: toxicity, organism-based; parameters: dose 300 mg/kg; conditions: in vivo
[8] = Cytotoxicity against human colon cancer cells; assay type: functional; conditions: Cancer cell lines
[9] = Cytotoxicity against human leukemia cells; assay type: functional; conditions: Leukemia cell
[10] = target: T1, Glycylpeptide N-tetradecanoyltransferase 1 (Homo sapiens); assay: Inhibition of human NMT at 50 uM

Structure (SMILES) | IC50 [1] [nM] | MIC (Aspergillus fumigatus [2]) [µg/mL] | MIC (Aspergillus fumigatus [3]) [µg/mL] | IC50 (L1210) [µM] | IC50 (CCRF-CEM) [nM] | MIC (Aspergillus fumigatus [4]) [µg/mL] | MIC (Aspergillus fumigatus [5]) [µg/mL] | MIC (Aspergillus fumigatus [6]) [µg/mL] | inhibition [7] [%] | Activity (Mus musculus) | GI50 [8] [nM] | GI50 [9] [nM] | inhibition [10] [%]
O=C(/C=C/C(=O)N1C/C(=C\c2ccc([N+](=O)[O-])cc2)C(=O)/C(=C/c2ccc([N+](=O)[O-])cc2)C1)Nc1ccc(Cl)c(Cl)c1 | 600 | > 50 | > 50 | 1.7 | 380 | > 50 | > 50 | > 50 | 50 | Non-toxic |  |  | 
O=C(/C=C/C(=O)N1C/C(=C\c2ccccc2)C(=O)/C(=C/c2ccccc2)C1)Nc1ccc(Cl)c(Cl)c1 | 1700 | > 50 | > 50 | 7.5 | 350 | > 50 | > 50 | > 50 | 50 | Non-toxic | 646 | 447 | 
O=C(/C=C/C(=O)N1C/C(=C\c2ccccc2)C(=O)/C(=C/c2ccccc2)C1)Nc1ccc(Cl)cc1 | 1800 | > 50 | > 50 | 7.8 | 840 | > 50 | > 50 | > 50 |  | Non-toxic | 1150 | 589 | 
O=c1[nH]cc(F)c(=O)[nH]1 [FLUOROURACIL] |  |  |  |  |  |  |  |  |  |  | 5750 | 52500 | 
O=C(/C=C/C(=O)N1C/C(=C\c2ccccc2)C(=O)/C(=C/c2ccccc2)C1)Nc1ccc([N+](=O)[O-])cc1 | 31000 | > 50 | > 50 | 40 | 40000 | > 50 | > 50 | > 50 |  | Non-toxic |  |  | 
CC(=O)c1ccc(NC(=O)/C=C/C(=O)N2C/C(=C\c3ccccc3)C(=O)/C(=C/c3ccccc3)C2)cc1 | 1400 | > 50 | > 50 | 5.5 | 1700 | > 50 | > 50 | > 50 |  | Non-toxic |  |  | 
O=C(/C=C/C(=O)N1C/C(=C\c2ccc([N+](=O)[O-])cc2)C(=O)/C(=C/c2ccc([N+](=O)[O-])cc2)C1)Nc1ccccc1 | 360 | > 50 | > 50 | 1.8 | 370 | > 50 | > 50 | > 50 |  | Non-toxic |  |  | 
Cc1ccc(NC(=O)/C=C/C(=O)N2C/C(=C\c3ccccc3)C(=O)/C(=C/c3ccccc3)C2)cc1C | 7900 | > 50 | > 50 | 31 | 7100 | > 50 | > 50 | > 50 |  | Non-toxic |  |  | 
Cc1cccc(C)c1NC(=O)/C=C/C(=O)N1C/C(=C\c2ccccc2)C(=O)/C(=C/c2ccccc2)C1 | 6600 | > 50 | > 50 | 22 | 7400 | > 50 | > 50 | > 50 |  | Non-toxic |  |  | 
O=C(/C=C/C(=O)N1C/C(=C\c2ccc([N+](=O)[O-])cc2)C(=O)/C(=C/c2ccc([N+](=O)[O-])cc2)C1)Nc1ccc([N+](=O)[O-])cc1 | 430 | > 50 | > 50 | 1 | 410 | > 50 | > 50 | > 50 |  | Non-toxic |  |  | 
O=C(/C=C/C(=O)N1C/C(=C\c2ccc([N+](=O)[O-])cc2)C(=O)/C(=C/c2ccc([N+](=O)[O-])cc2)C1)Nc1ccc(Cl)cc1 | 1200 | > 50 | > 50 | 3.6 | 810 | > 50 | > 50 | > 50 |  | Non-toxic |  |  | 
O=C(/C=C/C(=O)N1C/C(=C\c2ccccc2)C(=O)/C(=C/c2ccccc2)C1)Nc1ccccc1 | 520 | > 50 | > 50 | 3.6 | 1100 | > 50 | > 50 | > 50 |  | Non-toxic |  |  | 
Cc1cccc(C)c1NC(=O)/C=C/C(=O)N1C/C(=C\c2ccc([N+](=O)[O-])cc2)C(=O)/C(=C/c2ccc([N+](=O)[O-])cc2)C1 | 210 | > 50 | > 50 | 0.69 | 230 | > 50 | > 50 | > 50 |  | Non-toxic |  |  | 
Cc1ccc(NC(=O)/C=C/C(=O)N2C/C(=C\c3ccc([N+](=O)[O-])cc3)C(=O)/C(=C/c3ccc([N+](=O)[O-])cc3)C2)cc1C | 660 | > 50 | > 50 | 4.9 | 700 | > 50 | > 50 | > 50 |  | Non-toxic |  |  | 
C[C@@H](c1ncncc1F)[C@](O)(Cn1cncn1)c1ccc(F)cc1F [VORICONAZOLE] |  | ≤ 0.25 | ≤ 0.25 |  |  | ≤ 0.25 | ≤ 0.25 | ≤ 0.25 |  |  |  |  | 
COc1ccc(NC(=O)/C=C/C(=O)N2C/C(=C\c3ccccc3)C(=O)/C(=C/c3ccccc3)C2)cc1 | 1100 | > 50 | > 50 | 6.8 | 510 | > 50 | > 50 | > 50 |  | Non-toxic | 759 | 105 | 
Cc1ccc(NC(=O)/C=C/C(=O)N2C/C(=C\c3ccc([N+](=O)[O-])cc3)C(=O)/C(=C/c3ccc([N+](=O)[O-])cc3)C2)cc1 | 700 | > 50 | > 50 | 4.4 | 890 | > 50 | > 50 | > 50 |  | Non-toxic |  |  | 50
N[C@@H](Cc1ccc(N(CCCl)CCCl)cc1)C(=O)O [MELPHALAN] |  |  |  |  |  |  |  |  |  |  | 50100 | 3980 | 
CC(=O)c1ccc(NC(=O)/C=C/C(=O)N2C/C(=C\c3ccc([N+](=O)[O-])cc3)C(=O)/C(=C/c3ccc([N+](=O)[O-])cc3)C2)cc1 | 390 | > 50 | > 50 | 1.4 | 360 | > 50 | > 50 | > 50 |  | Non-toxic |  |  | 
COc1ccc(NC(=O)/C=C/C(=O)N2C/C(=C\c3ccc([N+](=O)[O-])cc3)C(=O)/C(=C/c3ccc([N+](=O)[O-])cc3)C2)cc1 | 940 | > 50 | > 50 | 2.9 | 760 | > 50 | > 50 | > 50 |  | Non-toxic |  |  | 
